Assay results reported in ChEMBL document CHEMBL1157728, “Novel small molecule bradykinin B1 receptor antagonists. Part 2: 5-membered diaminoheterocycles” (Bioorg Med Chem Lett, 2010).
Values after ≈ are worked out from the molar mass of the structure shown.

Assays:
B1 bradykinin receptor = molecular target: T1, B1 bradykinin receptor (Homo sapiens, UniProt P46663); experiment: Antagonist activity at bradykinin B1 receptor in human IMR90 cells pretreated with IL1-beta assessed as inhibition of DAKD-induced calcium mobilization; format: functional, cell-based, IMR-90
T1 sequence (P46663 whole entry): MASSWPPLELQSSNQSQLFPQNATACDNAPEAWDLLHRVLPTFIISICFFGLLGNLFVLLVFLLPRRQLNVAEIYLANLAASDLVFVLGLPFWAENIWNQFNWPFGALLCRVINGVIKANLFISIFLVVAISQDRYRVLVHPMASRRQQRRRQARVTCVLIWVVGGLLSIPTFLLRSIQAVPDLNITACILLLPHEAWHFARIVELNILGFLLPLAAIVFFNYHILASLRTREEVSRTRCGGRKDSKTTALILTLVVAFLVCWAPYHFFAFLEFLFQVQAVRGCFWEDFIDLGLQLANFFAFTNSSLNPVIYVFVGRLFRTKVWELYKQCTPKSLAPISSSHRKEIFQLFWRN

[1] = Solubility in water; format: physicochemical
[2] = Metabolic stability in human liver microsomes assessed as compound remaining after 1 hr; format: ADME, Microsome; conditions: read-out: Stability
[3] = Efflux ratio of permeability from basolateral to apical side to apical to basolateral side in human Caco-2 cells; format: ADME, cell-based
[4] = Solubility of the compound; format: physicochemical
[5] = Apparent permeability from apical to basolateral side of human Caco-2 cells; format: ADME, cell-based; conditions: read-out: permeability
[6] = Solubility in aqueous buffer; format: physicochemical

| Structure (SMILES) | IC50 (B1 bradykinin receptor) | other results |
| --- | --- | --- |
| CC(=O)Nn1c(NCc2ccc(-c3cc(Cl)cc(F)c3-c3noc(C)n3)cc2F)nc(C)c1C | 180 nM |  |
| COc1cc(C(=O)Nc2nsnc2NCc2ccc(-c3cc(Cl)cc(F)c3-c3noc(C)n3)cc2F)on1 | 0.6 nM |  |
| CC(=O)Nn1ccnc1NCc1ccc(-c2cc(Cl)cc(F)c2-c2noc(C)n2)cc1F | 1.6 nM |  |
| COC(=O)c1c(F)cccc1-c1ccc(CN2Cc3ccccc3C2=O)c(F)c1 | 6100 nM |  |
| COc1cc(C(=O)Nn2c(NCc3ccc(-c4cc(Cl)cc(F)c4-c4noc(C)n4)cc3F)nc(C)c2C)on1 | 85 nM | solubility [1]: 40 µM (≈ 22.8 µg/mL) |
| COc1cc(C(=O)Nn2ccnc2NCc2ccc(-c3cc(Cl)cc(F)c3-c3noc(C)n3)cc2F)on1 | 1.7 nM | solubility [1]: 42 µM (≈ 22.8 µg/mL) |
| CC(=O)Nn1c(NCc2ccc(-c3cc(Cl)cc(F)c3-c3noc(C)n3)cc2F)nc2ccccc21 | 4.6 nM | solubility [1]: 40 µM (≈ 20.4 µg/mL) |
| COc1cc(C(=O)Nc2nonc2NCc2ccc(-c3cc(Cl)cc(F)c3-c3noc(C)n3)cc2F)on1 | 1 nM | remaining at 1 h [2]: 61%; efflux ratio [3]: 1; solubility [4]: 12 µM (≈ 6.53 µg/mL); Papp A→B [5]: 48 ×10⁻⁶ cm/s |
| CC(=O)Nn1c(Cl)cnc1NCc1ccc(-c2cc(Cl)cc(F)c2-c2noc(C)n2)cc1F | 0.3 nM |  |
| COC(=O)c1c(F)cccc1-c1ccc(CN2CCCC2=O)c(F)c1 | 42000 nM |  |
| COc1cc(C(=O)Nn2c(NCc3ccc(-c4cc(Cl)cc(F)c4-c4noc(C)n4)cc3F)nc3ccccc32)on1 | 0.7 nM | efflux ratio [3]: 7.1; solubility [6]: 14 µM (≈ 8.29 µg/mL) |

Further lines, with some results ahead:

| IC50 (B1 bradykinin receptor) | Structure (SMILES) | other results |
| --- | --- | --- |
| 3.5 nM | COc1cc(C(=O)Nc2cn[nH]c2NCc2ccc(-c3cc(Cl)cc(F)c3-c3noc(C)n3)cc2F)on1 |  |
| 1.7 nM | CC(=O)Nc1nsnc1NCc1ccc(-c2cc(Cl)cc(F)c2-c2noc(C)n2)cc1F |  |
| 35000 nM | COC(=O)c1c(F)cccc1-c1ccc(CNC(C)=O)c(F)c1 |  |
| 7.7 nM | CC(=O)Nc1nonc1NCc1ccc(-c2cc(Cl)cc(F)c2-c2noc(C)n2)cc1F | solubility [4]: 21 µM (≈ 9.68 µg/mL) |
| 3500 nM | COC(=O)c1c(F)cccc1-c1ccc(CNc2nc3ccccc3[nH]2)c(F)c1 |  |
